Key:
Test in all cases: relative viability (nuclei count vs DMSO), 5 days (fraction); higher = more cells survive
Obatoclax + Navitoclax = compound: COC1=CC(c2cc3ccccc3[nH]2)=N/C1=C\c1[nH]c(C)cc1C [Obatoclax] + CC1(C)CCC(c2ccc(Cl)cc2)=C(CN2CCN(c3ccc(C(=O)NS(=O)(=O)c4ccc(N[C@H](CCN5CCOCC5)CSc5ccccc5)c(S(=O)(=O)C(F)(F)F)c4)cc3)CC2)C1 [Navitoclax] (partner 0.5 µM)
How it was run: (§1)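 Cells from lung cancer lines were seeded into 1536-well plates and, one day later, dosed by pin tool. Treatments were either a single drug or a fixed dose of an anchor drug with five library-drug doses (not always all listed) in √10 steps. After 5 days, nuclei were stained in a one-step fixation (final 0.05% Triton X-100, 1% formaldehyde, 1 ug/ml Hoechst) and counted on 4× images, and relative viability is the treated-to-vehicle nuclei ratio, as the median of duplicate plates.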

[1] = compound: CC1=CC(=NN1)NC2=CC(=NC(=N2)/C=C/C3=CC=CC=C3)N4CCN(CC4)C + CC1(C)CCC(c2ccc(Cl)cc2)=C(CN2CCN(c3ccc(C(=O)NS(=O)(=O)c4ccc(N[C@H](CCN5CCOCC5)CSc5ccccc5)c(S(=O)(=O)C(F)(F)F)c4)cc3)CC2)C1 [Navitoclax] (partner 0.5 µM)
How it was run: as §1

Bortezomib + Trametinib = compound: CC(C)C[C@H](NC(=O)[C@H](Cc1ccccc1)NC(=O)c1cnccn1)B(O)O [Bortezomib] + CC(=O)Nc1cccc(-n2c(=O)n(C3CC3)c(=O)c3c(Nc4ccc(I)cc4F)n(C)c(=O)c(C)c32)c1 [Trametinib] (partner 0.02 µM)
How it was run: as §1

[2] = compound: CC1=CC(=NN1)NC2=CC(=NC(=N2)/C=C/C3=CC=CC=C3)N4CCN(CC4)C + Cc1nc(NC(=O)N2CCC[C@H]2C(N)=O)sc1-c1ccnc(C(C)(C)C(F)(F)F)c1 [Alpelisib] (partner 2 µM)
How it was run: as §1

Cell Line | relative viability (Obatoclax + Navitoclax; first compound 0.01 µM) | relative viability (Obatoclax + Navitoclax; first compound 0.03162 µM) | relative viability (Obatoclax + Navitoclax; first compound 0.1 µM) | relative viability (Obatoclax + Navitoclax; first compound 0.3162 µM) | relative viability (Obatoclax + Navitoclax; first compound 1 µM) | relative viability ([1]; first compound 0.08 µM) | relative viability ([1]; first compound 0.253 µM) | relative viability ([1]; first compound 0.8 µM) | relative viability ([1]; first compound 2.53 µM) | relative viability ([1]; first compound 8 µM) | relative viability (Bortezomib + Trametinib; first compound 0.0002 µM) | relative viability (Bortezomib + Trametinib; first compound 0.000632 µM) | relative viability (Bortezomib + Trametinib; first compound 0.002 µM) | relative viability (Bortezomib + Trametinib; first compound 0.006325 µM) | relative viability (Bortezomib + Trametinib; first compound 0.02 µM) | relative viability ([2]; first compound 0.08 µM) | relative viability ([2]; first compound 0.253 µM) | relative viability ([2]; first compound 0.8 µM) | relative viability ([2]; first compound 2.53 µM) | relative viability ([2]; first compound 8 µM)
NCI-H2170 | 0.618 | 0.554 | 0.606 | 0.609 | 0.577 | 0.588 | 0.574 | 0.619 | 0.248 | 0.159 | 0.892 | 0.921 | 0.972 | 0.229 | 0.142 | 0.765 | 0.861 | 0.668 | 0.494 | 0.147
EKVX | 0.86 | 0.618 | 0.98 | 0.924 | 0.922 | 0.946 | 1.24 | 1.03 | 0.755 | 0.131 | 0.345 | 0.38 | 0.208 | 0.174 | 0.0845 | 0.856 | 1.09 | 0.941 | 0.675 | 0.167
RERF-LC-KJ | 1.04 | 0.845 | 0.729 | 0.875 | 0.319 | 1.05 | 1.01 | 0.764 | 0.361 | 0.189 | 0.868 | 0.863 | 0.823 | 0.395 | 0.199 | 0.788 | 0.978 | 0.828 | 0.573 | 0.314
NCI-H1755 | 0.974 | 0.966 | 1 | 0.951 | 1.04 | 0.984 | 0.98 | 0.974 | 0.504 | 0.155 | 0.761 | 0.77 | 0.706 | 0.279 | 0.223 | 0.9 | 1.07 | 0.887 | 0.456 | 0.155
LOU-NH91 | 0.761 | 0.739 | 0.556 | 0.549 | 0.364 | 0.706 | 0.729 | 0.697 | 0.387 | 0.201 | 0.772 | 0.793 | 0.402 | 0.344 | 0.359 | 0.68 | 0.816 | 0.762 | 0.61 | 0.404
LXF-289 | 0.912 | 0.883 | 0.926 | 0.905 | 0.96 | 0.924 | 0.966 | 0.922 | 0.772 | 0.325 | 0.699 | 0.672 | 0.768 | 0.113 | 0.101 | 1.07 | 1.06 | 0.919 | 0.199 | 0.0577
HCC-44 | 0.923 | 0.803 | 0.989 | 0.911 | 1.05 | 0.967 | 1.01 | 0.965 | 0.912 | 0.436 | 1.1 | 1.04 | 0.984 | 0.92 | 0.277 | 0.784 | 0.879 | 0.675 | 0.281 | 0.0774
HARA | 1.09 | 1.11 | 1.15 | 0.871 | 1.11 | 1.17 | 1.16 | 1.13 | 0.982 | 0.238 | 0.642 | 0.592 | 0.896 | 0.0979 | 0.189 | 0.858 | 0.85 | 0.974 | 0.121 | 0.0791
201T | 1.23 | 1.2 | 1.18 | 1.21 | 1.31 | 1.2 | 1.21 | 1.19 | 1.13 | 1.12 | 0.732 | 0.72 | 0.685 | 0.625 | 0.262 | 1.04 | 1.08 | 1.01 | 0.931 | 0.793
LC-2-ad | 0.359 | 0.446 | 0.311 | 0.26 | 0.145 | 0.432 | 0.332 | 0.224 | 0.0861 | 0.0584 | 0.903 | 0.89 | 0.995 | 0.597 | 0.201 | 0.861 | 0.781 | 0.714 | 0.0868 | 0.0702
NCI-H596 | 0.898 | 0.74 | 0.775 | 0.519 | 0.583 | 0.91 | 1.04 | 0.705 | 0.489 | 0.27 | 0.835 | 0.773 | 0.568 | 0.208 | 0.168 | 0.5 | 0.577 | 0.565 | 0.367 | 0.121
NCI-H1437 | 1.03 | 1.1 | 1.08 | 1.1 | 0.746 | 1.06 | 1.12 | 1.03 | 0.816 | 0.175 | 0.537 | 0.584 | 0.551 | 0.178 | 0.226 | 1.02 | 1.01 | 0.881 | 0.972 | 0.285
NCI-H727 | 0.416 | 0.487 | 0.409 | 0.451 | 0.262 | 0.423 | 0.483 | 0.378 | 0.286 | 0.0872 | 0.367 | 0.43 | 0.363 | 0.413 | 0.266 | 0.586 | 0.54 | 0.529 | 0.377 | 0.167
PC-3 [JPC-3] | 0.853 | 0.682 | 0.801 | 0.796 | 0.668 | 0.769 | 0.81 | 0.762 | 0.62 | 0.389 | 0.639 | 0.756 | 0.41 | 0.252 | 0.202 | 1.08 | 1.15 | 1.04 | 1 | 0.78
SW 1573 | 1.04 | 0.788 | 0.989 | 0.937 | 0.267 | 0.98 | 1.06 | 0.772 | 0.227 | 0.0461 | 0.55 | 0.612 | 0.291 | 0.074 | 0.0469 | 0.886 | 1.07 | 0.785 | 0.499 | 0.124
